# Assay results from patent US4205170A, “Propionic acid derivatives” (priority 1976, dated 1980).
# Read-outs that look alike come from different tables or passages of the source.
# Tested on: edema in the hind paws (carrageenan)
# Assay: carrageenan-induced hind paw edema, oral administration
# Format: in vivo, male Wistar rats
# Conditions: Rattus norvegicus; for inhibition in vivo at 8 mg/kg: 8 mg/kg orally
# Description: That is, male Wistar rats weighing about 100 g, one group consisting of 5 to 7 animals, were given orally the compounds according to the present invention and then edema was induced in the hind paws by subcutaneous injections of 0.1 ml of 1% carrageenan 1 hour after the administration of the test compounds, and the volumes of the hind paws were measured by a volume differential meter.
# [1] = 10 mg/kg orally, 1 hr, read-out: Inhibition (%) 1 hr
# [2] = 10 mg/kg orally, 2 hr, read-out: Inhibition (%) 2 hr
# [3] = 10 mg/kg orally, 3 hr, read-out: Inhibition (%) 3 hr
# [4] = 10 mg/kg orally, 4 hr, read-out: Inhibition (%) 4 hr
# [5] = 10 mg/kg orally, 5 hr, read-out: Inhibition (%) 5 hr
# [6] = 10 mg/kg orally, 6 hr, read-out: Inhibition (%) 6 hr
# [7] = 1 h, read-out: Inhibition (%) 1 hr
# [8] = 2 h, read-out: Inhibition (%) 2 hr
# [9] = 3 h, read-out: Inhibition (%) 3 hr
# [10] = 4 h, read-out: Inhibition (%) 4 hr
# [11] = 5 h, read-out: Inhibition (%) 5 hr
# [12] = 6 h, read-out: Inhibition (%) 6 hr
SMILES,inhibition in vivo at 10 mg/kg [1],inhibition in vivo at 10 mg/kg [2],inhibition in vivo at 10 mg/kg [3],inhibition in vivo at 10 mg/kg [4],inhibition in vivo at 10 mg/kg [5],inhibition in vivo at 10 mg/kg [6],also measured
"CC(C(N)=O)c1ccc2c(c1)C(=O)Cc1ccccc1S2 (stereo not drawn) [Compound 1, 2-(10,11-dihydro-11-oxodibenzo[b,f]thiepin-2-yl)-propionamide]",47.1%,66.7%,70.5%,73.6%,68%,66%,
"CC(C(=O)O)c1ccc2c(c1)C(=O)Cc1ccccc1S2 (stereo not drawn) [Compound 2, 2-(10,11-dihydro-11-oxodibenzo[b,f]thiepin-2-yl)-propionic acid]",,,,,,,inhibition in vivo at 1 mg/kg [7]: 53.8%; inhibition in vivo at 10 mg/kg [7]: 55%; inhibition in vivo at 1 mg/kg [8]: 57.3%; inhibition in vivo at 10 mg/kg [8]: 76.3%; inhibition in vivo at 1 mg/kg [9]: 70.9%; inhibition in vivo at 10 mg/kg [9]: 78%; inhibition in vivo at 1 mg/kg [10]: 69.6%; inhibition in vivo at 10 mg/kg [10]: 78.5%; inhibition in vivo at 1 mg/kg [11]: 68.7%; inhibition in vivo at 10 mg/kg [11]: 74.8%; inhibition in vivo at 1 mg/kg [12]: 65.6%; inhibition in vivo at 10 mg/kg [12]: 70%
"CCOC(=O)C(C)c1ccc2c(c1)C(=O)Cc1ccccc1S2 (stereo not drawn) [Compound 3, Ethyl 2-(10,11-dihydro-11-oxodibenzo[b,f]thiepin-2-yl)-propionate]",62.3%,72%,79.9%,78.2%,74.5%,64.5%,
"CC(C(=O)O)c1ccc2c(c1)CCc1ccccc1S2 (stereo not drawn) [Compound 4, 2-(10,11-dihydrodibenzo[b,f]thiepin-2-yl)-propionic acid]",47.2%,58.8%,54.6%,48.3%,41%,35%,
"CCOC(=O)C(C)c1ccc2c(c1)CCc1ccccc1S2 (stereo not drawn) [Compound 5, Ethyl 2-(10,11-dihydrodibenzo[b,f]thiepin-2-yl)-propionate]",56.6%,68%,67.4%,52.2%,38.7%,29.3%,
"CC(C(=O)O)c1ccc2c(c1)Sc1ccccc1CC2=O (stereo not drawn) [Compound 6, 2-(10,11-dihydro-11-oxodibenzo[b,f]thiepin-3-yl)-propionic acid]",65.9%,41.5%,31.8%,26.1%,22.3%,20.5%,
"CCOC(=O)C(C)c1ccc2c(c1)Sc1ccccc1CC2=O (stereo not drawn) [Compound 7, Ethyl 2-(10,11-dihydro-11-oxodibenzo[b,f]thiepin-3-yl)-propionate]",58.7%,39.6%,31.2%,25.9%,22.3%,18.8%,
"CCOC(=O)C(C)c1ccc2c(c1)Sc1ccccc1CC2 (stereo not drawn) [Compound 8, Ethyl 2-(10,11-dihydrodibenzo[b,f]thiepin-3-yl)-propionate]",43.2%,37.8%,26.9%,20.1%,15.8%,15.1%,
"CC(C(=O)O)c1ccc2c(c1)Sc1ccccc1CC2 (stereo not drawn) [Compound 9, 2-(10,11-dihydrodibenzo[b,f]thiepin-3-yl)-propionic acid]",52.1%,41%,27.5%,21.3%,16.6%,16.3%,
"CC(C(N)=O)c1ccc2c(c1)C(=O)Cc1ccccc1O2 (stereo not drawn) [Compound 10, 2-(10,11-dihydro-11-oxodibenzo[b,f]oxepin-2-yl)-propionamide]",71.2%,69.3%,76.3%,76.7%,56.4%,34.4%,
"CCOC(=O)C(C)c1ccc2c(c1)C(=O)Cc1ccccc1O2 (stereo not drawn) [Compound 11, Ethyl 2-(10,11-dihydro-11-oxodibenzo[b,f]oxepin-2-yl)-propionate]",21.2%,56.8%,64.9%,70%,62.8%,52.6%,
"CC(C(=O)O)c1ccc2c(c1)C(=O)Cc1ccccc1O2 (stereo not drawn) [Compound 12, 2-(10,11-dihydro-11-oxodibenzo[b,f]oxepin-2-yl)-propionic acid]",,,,,,,inhibition in vivo at 10 mg/kg [7]: 34.2%; inhibition in vivo at 10 mg/kg [8]: 58.3%; inhibition in vivo at 10 mg/kg [9]: 79.4%; inhibition in vivo at 10 mg/kg [10]: 83.1%; inhibition in vivo at 10 mg/kg [11]: 71.1%; inhibition in vivo at 10 mg/kg [12]: 51.4%
"CC(C(=O)O)c1ccc2c(c1)CCc1ccccc1O2 (stereo not drawn) [Compound 13, 2-(10,11-dihydrodibenzo[b,f]oxepin-2-yl)-propionic acid]",42.4%,55.5%,65.4%,63.3%,49.1%,33.3%,
"CCOC(=O)C(C)c1ccc2c(c1)CCc1ccccc1O2 (stereo not drawn) [Compound 14, Ethyl 2-(10,11-dihydrodibenzo[b,f]oxepin-2-yl)-propionate]",48.6%,67.6%,60.3%,53.2%,35.8%,26%,
"CC(C(N)=O)c1ccc2c(c1)CCc1ccccc1O2 (stereo not drawn) [Compound 15, 2-(10,11-dihydrodibenzo[b,f]oxepin-2-yl)-propionamide]",36.1%,44.1%,53.3%,48.7%,33%,27.2%,
"CC(C(=O)O)c1ccc2c(c1)Oc1ccccc1CC2=O (stereo not drawn) [Compound 16, 2-(10,11-dihydro-11-oxodibenzo[b,f]oxepin-3-yl)-propionic acid]",53.6%,49.9%,50.7%,46.2%,37%,26.2%,
"CC(C(N)=O)c1cccc2c1Oc1ccccc1CC2=O (stereo not drawn) [Compound 17, 2-(10,11-dihydro-11-oxodibenzo[b,f]oxepin-4-yl)-propionamide]",65.9%,49.4%,35.4%,29%,17.2%,13%,
"CC(C(=O)O)c1cccc2c1Oc1ccccc1CC2=O (stereo not drawn) [Compound 18, 2-(10,11-dihydro-11-oxodibenzo[b,f]oxepin-4-yl)-propionic acid]",,,,,,,"inhibition in vivo at 8 mg/kg (1 hr, read-out: Inhibition (%) 1 hr): 34.3%; inhibition in vivo at 8 mg/kg (2 hr, read-out: Inhibition (%) 2 hr): 36.4%; inhibition in vivo at 8 mg/kg (3 hr, read-out: Inhibition (%) 3 hr): 38.3%; inhibition in vivo at 8 mg/kg (4 hr, read-out: Inhibition (%) 4 hr): 36.1%; inhibition in vivo at 8 mg/kg (5 hr, read-out: Inhibition (%) 5 hr): 36.1%; inhibition in vivo at 8 mg/kg (6 hr, read-out: Inhibition (%) 6 hr): 35.1%"
"CC(C(=O)O)c1cccc2c1Oc1ccccc1CC2 (stereo not drawn) [Compound 19, 2-(10,11-dihydrodibenzo[b,f]oxepin-4-yl)-propionic acid]",45.1%,51.3%,28.2%,25.1%,18.7%,10.2%,
"CC(C(=O)O)c1ccc2c(c1)C(=O)Cc1cccnc1S2 (stereo not drawn) [Compound 20, 2-(5,6-dihydro-6-oxobenzo[b]pyrido[3,2-f]thiepin-8-yl)-propionic acid]",45%,54.3%,47.5%,33.8%,28.9%,24.3%,
"CC(C(=O)O)c1ccc2c(c1)CCc1cccnc1S2 (stereo not drawn) [Compound 21, 2-(5,6-dihydrobenzo[b]pyrido[3,2-f]thiepin-8-yl)-propionic acid]",69.5%,75.6%,69%,67%,70.3%,64.6%,
"CCOC(=O)C(C)c1ccc2c(c1)CCc1cccnc1S2 (stereo not drawn) [Compound 22, Ethyl 2-(5,6-dihydrobenzo[b]pyrido[3,2-f]thiepin-8-yl)-propionate]",29.6%,51.7%,59.1%,57%,45.9%,42.8%,
